Series [1] concerns chorioallantoic membrane (CAM). Nature of the series: In ovo irritation test (HET-CAM). In kind it is in vivo, chicken. The conditions noted are these: SIL-O and SIL-L at 100 µM. As to the method:
The potential irritant effect of SIL-O and SIL-L (100 µM) was assessed in ovo, by applying the Hen’s Egg Test – Chorioallantoic Membrane (HET-CAM) test. The applied procedure was also described by Breban-Schwarzkopf et al.. Briefly, chicken-fertilized eggs were cleaned and disinfected with ethanol 70% and placed in an incubator at 37 ^∘C and 60% humidity. On the fourth day of incubation, a cut was performed on the eggs’ tips to allow the extraction of 6–7 mL albumen, while on the fifth day, a window was cut on the upper side of each egg and covered with adhesive tape. The experiment was performed on the tenth day of incubation, by applying the samples directly on the chorioallantoic membrane (CAM) and analyzing the occurrence of vascular impairments, such as hemorrhage, lysis, and coagulation for 5 min. Representative pictures were taken before the start of the experiment (T0) and at its end (T5) using the Discovery 8 SteREO Microscope equipped with an Axio CAM 105 color camera and processed in ZEN core version 3.8 software (Zeiss, Göttingen, Germany). The irritant potential was determined by calculating the irritation score (IS) for each sample and interpreted as presented in a previous publication.

A further series concerns HaCaT keratinocytes. Nature of the series: Hoechst 33342 nuclear staining, apoptotic index. In kind it is cell-based, human. The conditions noted are these: 100 µM, 24 h. As to the method:
The influence of SIL, SIL-O, and SIL-L (100 µM) on nuclear morphology was evaluated by imaging the cells’ nuclei stained with Hoechst 33342. Shortly, at the end of the treatment, the H9c2(2-1), HepaRG, and HaCaT cells cultured in 12-well plates were treated with staining solution (500 µL/well, dilution of 1:2000 in PBS) for 10 min at room temperature, protected from light and washed with PBS before imaging which was performed on Cytation 1 Imaging Reader (BioTek Instruments Inc., Winooski, VT, USA). Image processing was conducted using the Gen5™ Microplate Data Collection and Analysis Software (BioTek Instruments Inc., Winooski, VT, USA). Apoptotic index (AI) was calculated by applying the formula previously reported: […]

Series [2] relates to HK-2 human renal tubular endothelial cells. More on the design: method as in PMID 32103902. The conditions noted are these: HK-2 cells, 60 and 90 µM, 48 h; cited from earlier work.
Series [3] concerns HaCaT cells. The series can be described thus: Cell migration (scratch) assay. In kind it is cell-based, human. The conditions noted are these: 24 h. As to the method:
(§1) To investigate the effect of SIL, SIL-O, and SIL-L treatments on the migration of H9c2(2-1), HepaRG, and HaCaT cells, the scratch assay was performed as follows: (A) the cells (10^5 cells/mL/well) were seeded in Corning Costar 24-well plates and left to attach and reach a proper confluence, (B) a scratch was automatically made in every well using the AutoScratch™ Wound Making Tool (BioTek Instruments Inc., Winooski, VT, USA), (C) the cells were exposed to SIL and its FAs derivatives 1, 10, and 25 µM for 24 h, and (D) the wound area was imaged at two time points (0 and 24 h) using Cytation 1 Imaging Reader (BioTek® Instruments Inc., Winooski, VT, USA). The Gen5 ™ Microplate Data Collection and Analysis Software (BioTek® Instruments Inc., Winooski, VT, USA) was used to measure the wound widths in each image. The migration rates (%) for the applied treatments were determined using the formula presented below and normalized to control.
(§2) Migration rate (%) ═ [drawing 2] ×100, where:
(§3) At0 ═ wound width at 0 h,
(§4) At24 ═ wound width at 24 h.

On the set-up of series [4]: method as in PMID 19601873. The conditions noted are these: buffers with pH 1.0–7.8 and physiological media (plasma, intestinal and liver fluids); cited from earlier work.
The next series in a line: MTT cell viability assay. In kind it is cell-based. As to the method: The study was performed using three cell lines – H9c2(2-1) cardiomyoblasts (CRL-1446™), HepaRG hepatocytes (HPRGC10), and HaCaT keratinocytes (300493) – delivered as frozen vials by ATCC (Lomianki, Poland), ThermoFisher Scientific (Waltham, MA, USA), and CLS Cell Lines Service GmbH (Eppelheim, Germany), respectively. H9c2(2-1) and HaCaT cells were grown in DMEM, while HepaRG cells were cultured in William’s E Medium containing insulin from bovine pancreas (at a final concentration of 4 µg/mL) and hydrocortisone 21-hemisuccinate sodium salt (at a final concentration of 50 µM). Both media were supplemented with 10% FCS and 1% antibiotics (penicillin 100 U/mL and streptomycin 100 µg/mL). The cells were cultured at 37 ^∘C and 5% CO2, in a humidified incubator for cell culture, presenting normal proliferation during the experiments.
The impact of all tested compounds (1, 10, 25, 50, and 100 µM) on the viability of H9c2(2-1), HepaRG, and HaCaT cells was assessed using the MTT method which was performed according to a previous publication. Briefly, the cells cultured in 96-well plates were exposed to SIL, SIL-O, and SIL-L for 24 h. At the end of the treatment, the culture medium containing SIL, SIL-O, and SIL-L was removed and replaced with 100 µL/well of the specific culture media for the used cell lines (DMEM for H9c2(2-1) cells and HaCaT; William’s E Medium for HepaRG). Then, 10 µL of MTT reagent was added in every well, followed by 3 h of incubation of the plates at 37 ^∘C. The absorbance measurements were performed at 570 and 630 nm on Cytation 5 Microplate Reader (BioTek Instruments Inc., Winooski, VT, USA) following the addition of the MTT solubilization solution (a volume of 100 µL/well), and the plates’ incubation at room temperature for 30 min, protected from light.
(Formazan colour is commonly taken as a measure of viable cells.)

The subject of series [5] is Madin–Darby Canine Kidney (MDCK) cells. More on the design: method as in PMID 20036447. The conditions noted are these: 800 µM, 2 h; cited from earlier work.
Series [6] concerns LX-2 human hepatic stellate cells. More on the design: method as in PMID 27746612. The conditions noted are these: LX-2 cells, 10, 50 and 100 µM; cited from earlier work.
In the next series the test system is HepaRG cells. The series can be described thus: Cell migration (scratch) assay. In kind it is cell-based. The conditions noted are these: 24 h, normalized to control. As to the method:
as §1, §2, §3, §4

The subject of a further series is H9c2(2-1) cells. The series can be described thus: Cell migration (scratch) assay. In kind it is cell-based. The conditions noted are these: 24 h, normalized to control. As to the method: as §1, §2, §3, §4
A further series deals with H9c2 cells. Also noted: method as in PMID 22818713. The conditions noted are these: concentrations up to 200 µM, 48 h; cited from earlier work.
Series [7] relates to HaCaT cells. More on the design: method as in earlier work. The conditions noted are these: 24 h, cited from earlier work.

Like-named read-outs stand apart in the source and are kept apart here.

Usually viability stands for a read-out of living cells in per cent, often relative to untreated cells.

For `CCCCCCCCCCCCOS(=O)(=O)[O-].[Na+]` [SDS 1%, sodium dodecyl sulfate], in series [1] (5 min), the “IS value (irritation score)” value is listed as 19.74. Further, in series [1] (based on IS value), the “Observation (irritant classification)” value is “Strong irritant”.
`COc1cc(C2Oc3cc([C@H]4Oc5cc(O)cc(O)c5C(=O)[C@@H]4O)ccc3OC2CO)ccc1O` (some centres unmarked) [SIL, Silibinin]: in the series on HaCaT keratinocytes, the “apoptotic index (AI)” value is listed as “no significant changes”. Besides, the effect on viability entry in series [2] was “significantly decreased the viability”. Moreover, the effect on migration entry was “significant inhibition” in the series with HaCaT cells [3] (25 µM, compared to control); “neither SIL, nor SIL-O or SIL-L affected” in the series with HaCaT cells [3] (1 and 10 µM). Moreover, the stability entry in series [4] was “unstable”. In addition, the viability at 24 h in “MTT cell viability assay” (human, HepaRG hepatocytes, higher concentrations (reduction up to), normalized to control) was around 80%. For the same compound, the viability at 24 h, 1 µM in the series “MTT cell viability assay” (rat, H9c2(2-1) cardiomyoblasts, 1 µM, normalized to control) was found to be 128%. The viability at 24 h, 100 µM in “MTT cell viability assay” (rat, H9c2(2-1) cardiomyoblasts, all tested concentrations (1, 10, 25, 50, 100 µM), compared to control) is above 100%. Also, the values for the cytotoxicity result (in series [5]; in the series with H9c2 cells) were “no cytotoxic effect” and “not cytotoxic”, respectively. Further, the “effect on migratory properties” value in series [6] is listed as “inhibitory effect”. The migration rate result with HepaRG cells (10 µM) is recorded as “around 50%”; in the series with HepaRG cells (25 µM), “around 50%”; in the series on H9c2(2-1) cells (1 µM) it was 105.34%; with H9c2(2-1) cells (25 µM), 119.8%.
`CCCCCCCC/C=C\CCCCCCCC(=O)Oc1c(-c2ccc(O)c(O)c2)oc2cc(O)cc(O)c2c1=O` [quercetin-3-oleate]: the “enhancement in wound healing compared to control” value was 47% with HaCaT cells [7] (0.1 µM (first concentration listed)), 35% with HaCaT cells [7] (0.1 µM (second concentration listed)) and 51% in the series with HaCaT cells [7] (1 µM).

The record behind these values is paper PMC11496873, “Synthesis, characterization, and in vitro–in ovo toxicological screening of silibinin fatty acids conjugates as prodrugs with potential biomedical applications” (Biomolecules and Biomedicine, 2024).
